Data from patent US6211203A, “Benzofuran-4-carboxamides” (Byk Gulden Lomberg Chemische Fabrik GmbH, priority 1996, dated 2001).

Tested on: PDE IV
Experiment: Inhibition of PDE IV activity
Format: biochemical
Details: Inhibition of PDE IV activity (Table A)

Point of comparison: `COc1ccc(C(=O)Nc2c(Cl)cncc2Cl)c2cc(C(C)C)oc12` [Compound 2, N-(3,5-Dichloropyrid-4-yl)-7-methoxy-2-(1-methylethyl)benzofuran-4-carboxamide], “-log IC50” value 9.28. Against it:
- CC(C)c1cc2c(C(=O)Nc3c(Cl)cncc3Cl)ccc(OC(F)F)c2o1 [Compound 4, N-(3,5-Dichloropyrid-4-yl)-7-difluoromethoxy-2-(1-methylethyl)benzofuran-4-carboxamide] — higher, 9.72
- COc1ccc(C(=O)Nc2c(Cl)cncc2Cl)c2cc(C3CCCC3)oc12 [Compound 5, N-(3,5-Dichloropyrid-4-yl)-2-cyclopentyl-7-methoxybenzofuran-4-carboxamide] — lower, 8.80
- COc1ccc(C(=O)Nc2c(Cl)cncc2Cl)c2cc(C)oc12 [Compound 1, N-(3,5-Dichloropyrid-4-yl)-7-methoxy-2-methylbenzofuran-4-carboxamide] — lower, 8.42
- COc1ccc(C(=O)Nc2c(Cl)cncc2Cl)c2cc(C(C)C)oc12 [Compound 3, N-(3,5-Dichloropyrid-4-yl)-7-methoxy-2-(1-methylethyl)benzofuran-4-carboxamide] — lower, 8.18
